Values joined by “and” are separate entries in the source; they are usually repeats but may differ in a detail not shown here. Equal values may be shown once.
Test system: blood glucose
Assay: Blood glucose levels in mice after oral or i.m. dosing of insulin liposomes (Example 2)
Format: in vivo
Settings: 10μ/kg
Protocol: Insulin concentration of the liposomes was 11.69%. Suspensions of the liposome compositions A and B were given orally to mice at concentrations of A-50 U/0.1 ml/10 gms. of body weight; and B-25 U/0.1 ml/10 gms of body weight. A control group received 0.5% carboxymethyl cellulose concurrently.
Composition A was diluted 1:10 for injection i.m. as a control.
After two and four hours the animals were sacrificed by anesthetizing with 85 mg/kg of sodium hexobarbital i.p. and collecting blood via cardiac puncture. The collected blood was placed in an Auto Analyzer Cup containing 0.025 cc. of heparin 1000 units/ml. The blood samples were capped, shaken, and kept in an ice bucket. Glucose was determined by the Auto Analyzer potassium ferriccyanide method No. N-2b.
Carboxymethyl cellulose given either by p.o. or i.m. route has the same effect on blood glucose. Therefore, the test materials whether given p.o. or i.m. can be related to the carboxymethyl cellulose control.

What does the source list for “Bovine Pancreatic Insulin: Bovine pancreatic insulin, Sigma Chemical”?
% Δ blood glucose 2 Hrs. Post (down arrow, decrease vs control) (2 hrs): 82%; Blood glucose levels 2 Hrs. Post, individual animals (2 hrs): 14 MG/100 ml and 12 MG/100 ml and 16 MG/100 ml; Blood glucose levels 2 Hrs. Post, mean (2 hrs): 14.0 ± 8 MG/100 ml; % Δ blood glucose 4 Hrs. Post (down arrow, decrease vs control) (4 hrs): 75%; Blood glucose levels 4 Hrs. Post, individual animals (4 hrs): 37 MG/100 ml and 10 MG/100 ml and 27 MG/100 ml and 31 MG/100 ml; Blood glucose levels 4 Hrs. Post, mean (4 hrs): 26.3 MG/100 ml

Source: patent US4356167A, “Liposome drug delivery systems” (Sandoz, Inc., priority 1981, dated 1982)
